In patent publication US20050187208A1 (priority 2004, published 2005):

Key:
[1] = target: T1, transfected human CB1 receptor (Homo sapiens, UniProt P21554); test: In-vitro determination of affinity to CB1 receptor, radioligand [^3H]-CP55940; format: binding; conditions: for inhibition at 1 µM: read-out: CB1 Receptor % Inhibition 10^−6 M
T1 construct: purchased Receptor Biology, Inc
Procedure: (§1) I. In-vitro Determination of Affinity to CB1/CB2-Rezeptors
(§2) The in-vitro determination of the affinity of the inventive substituted azetidine compounds to CB1/CB2-Receptors is carried out as described in the publication of Ruth A. Ross, Heather C. Brockie et al., “Agonist-inverse agonist characterization at CB1 and CB2 cannabinoid receptors of L-759633, L759656 and AM630”, British Journal of Pharmacology, 126, 665-672, (1999). The respective parts of the descriptions are hereby incorporated by reference and form part of the present disclosure. The transfected human CB1 and CB2 receptor are obtained from Receptor Biology, Inc. The radioligand used for both receptors is [^3H]-CP55940.
(§3) The affinity of the inventive substituted azetidine compounds to CB1/CB2 receptors is determined as described above.

[2] = tested on: cannabinoid receptors; test: Mouse tetrad model, antagonistic effect against Win 55212-2; format: in vivo; set-up: unit not given here; conditions: 5 mg/kg i.v. prior to Win 55212-2 1.25 mg/kg i.v.; male NMRI mice
Description: (§4) Substances with affinity for cannabinoid receptors are known to produce a wide range of pharmacological effects. It is also known that intravenous administration of a substance with affinity for cannabinoid receptors in mice produces analgesia, hypothermia, sedation and catalepsy. Individually, none of these effects can be considered as proof that a tested substance has affinity for cannabinoid-receptors, since all of these effects are common for various classes of centrally active agents. However, substances, which show all of these effects, i.e. substances that are active in this so-called tetrad model are considered to have affinity for the cannabinoid receptors. It has further been shown that cannabinoid receptor antagonists are higly effective in blocking the effects of a cannabinoid agonist in the mouse tetrad model.
(§5) The tetrad model is described, for example, in the publication of A. C. Howlett et al, International Union of Pharmacology XXVII. Classification of Cannabinoid Receptors, Pharmacol Rev 54, 161-202, 2002 and David R. Compton et al., “In-vivo Characterization of a Specific Cannabinoid Receptor Antagonist (SR141716A): Inhibition of Tetrahydrocannbinol-induced Responses and Apparent Agonist Activity”, J. Pharmacol. Exp. Ther. 277, 2, 586-594, 1996. The corresponding parts of the description are hereby incorporated by reference.
(§6) Male NMRI mice with a weight of 20-30 g (Harlan, Barcelona, Spain) are used in all of the following experiments.
(§7) Before testing in the behavioral procedures given below, mice are acclimatized to the experimental setting. Pre-Treatment control values are determined for analgesia hot plate latency (in seconds), rectal temperature, sedation and catalepsy.
(§8) In order to determine the agonistic activty of the substance to be tested, the mice are injected intravenously with the substance to be tested or the vehicle alone. 15 minutes after injection, latency in hot plate analgesia is measured. Rectal temperature, sedation and catalepsy are measured 20 minutes after injection.
In order to determine the antagonistic activity the identical procedure is used as for the determination of the agonistic effects, but with the difference that the substance to be evaluated for its antagonistic activity is injectected 5 minutes before the intravenous injection of 1.25 mg/kg Win-55,212 a known cannabinoid-receptor agonist.
(§9) The hot plate analgesia is determined according to the method described in Woolfe D. et al. “The evaluation of analgesic action of pethidine hydrochloride (Demerol)”, J. Pharmacol. Exp. Ther. 80, 300-307, 1944. The respective description is hereby incorporated by reference and forms part of the present disclosure.
(§10) The mice are placed on a hot plate (Harvard Analgesimeter) at 55±0.5° C. until they show a painful sensation by licking their paws or jumping and the time for these sensations to occur is recorded. This reading is considered the basal value (B). The maximum time limit the mice are allowed to remain on the hot plate in absence of any painful response is 40 seconds in order to prevent skin damage. This period is called the cut-off time (PC).
(§11) Fifteen minuts after the administration of the substance to be tested, the mice are again placed on the hot plate and the afore described procedure is repeated. This period is called the post-treatment reading (PT).
(§12) The degree of analgesia is calculated from the formula: % MPE of Analgesia=(PT−B)/(PC−B)×100 • MPE Maximum possible effect. Determination of Sedation and Ataxia
(§13) Sedation and ataxia is determined according to the method described in Desmet L. K. C. et al. “Anticonvulsive properties of.Cinarizine and Flunarizine in Rats and Mice”, Arzneim. -Forsch. (Frug Res) 25, 9, 1975. The respective description is hereby incorporated by reference and forms part of the present disclosure.
The chosen scoring system is • 0: no ataxia; • 1: doubful; • 2: obvious calmness and quiet; • 3 pronounced ataxia; prior to as well as after treatment. […]

[3] = tested on: cannabinoid receptors; test: Mouse tetrad model, agonistic effect (hot plate, hypothermia, catalepsy, sedation); format: in vivo; set-up: key to Agonistic effect A: Hot-Plate test: % MPE = (PT−B)/(PC−B)×100; key to Agonistic effect D: Sedation: % sedation = mean score (0-3)/3×100; Agonistic effect B: Hypothermia: unit not given here; conditions: 5 mg/kg i.v., male NMRI mice; for Agonistic effect A: Hot-Plate test: 15 minutes after injection; for Agonistic effect B: Hypothermia / Agonistic effect C: Catalepsy / Agonistic effect D: Sedation: 20 minutes after injection
Description: as §4, §5, §6, §7, §8, §9, §10, §11, §12, §13
The chosen scoring system is • 0: no ataxia; • 1: doubful; • 2: obvious calmness and quiet; • 3 pronounced ataxia; prior to as well as after treatment.
The percentage of sedation is determined according to the formula: % of sedation=arithmetic mean/3×100 Hypothermia: […]

[4] = target: T2, transfected human CB2 receptor (Homo sapiens, UniProt P34972); test: In-vitro determination of affinity to CB2 receptor, radioligand [^3H]-CP55940; format: binding; conditions: 10^−6 M
T2 construct: purchased Receptor Biology, Inc
Procedure: as §1, §2, §3

T1 sequence (P21554 whole entry): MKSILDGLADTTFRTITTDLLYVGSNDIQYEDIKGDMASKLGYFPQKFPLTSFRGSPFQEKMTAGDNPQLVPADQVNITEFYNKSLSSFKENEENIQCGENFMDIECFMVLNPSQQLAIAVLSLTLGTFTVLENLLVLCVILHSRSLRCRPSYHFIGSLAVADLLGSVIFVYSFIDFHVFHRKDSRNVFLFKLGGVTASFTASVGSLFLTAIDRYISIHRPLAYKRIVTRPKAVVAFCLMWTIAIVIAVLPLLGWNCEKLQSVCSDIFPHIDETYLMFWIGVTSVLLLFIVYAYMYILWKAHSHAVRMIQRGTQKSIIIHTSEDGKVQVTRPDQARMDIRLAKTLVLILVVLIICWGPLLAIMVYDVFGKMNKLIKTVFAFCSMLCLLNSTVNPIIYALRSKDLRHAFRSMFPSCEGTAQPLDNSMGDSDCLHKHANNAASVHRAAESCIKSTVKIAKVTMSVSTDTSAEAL
T2 sequence (P34972 whole entry): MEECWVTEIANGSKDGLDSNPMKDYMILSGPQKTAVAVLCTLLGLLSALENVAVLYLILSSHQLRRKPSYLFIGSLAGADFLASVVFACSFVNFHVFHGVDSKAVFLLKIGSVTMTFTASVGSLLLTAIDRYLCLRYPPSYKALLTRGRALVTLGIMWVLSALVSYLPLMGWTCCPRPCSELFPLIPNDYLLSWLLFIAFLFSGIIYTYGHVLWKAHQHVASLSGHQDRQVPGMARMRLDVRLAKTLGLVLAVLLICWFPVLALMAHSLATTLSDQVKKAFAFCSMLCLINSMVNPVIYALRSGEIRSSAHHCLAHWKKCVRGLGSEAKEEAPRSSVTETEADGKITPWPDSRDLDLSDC

Row | Compound | Ki ([1]; radioligand [^3H]-CP55940) [nM] | inhibition at 1 µM [1] [%] | Antagonistic Effect A: Hot-Plate test [2] | Antagonistic Effect B: Hypothermia [2] | Antagonistic Effect C: Catalepsy [2] | Antagonistic Effect D: Sedation [2] | Agonistic effect A: Hot-Plate test [3] | Agonistic effect B: Hypothermia [3] | Agonistic effect C: Catalepsy [3] | Agonistic effect D: Sedation [3] | inhibition at 1 µM [4] [%] | melting point [°C]
1 | C[C@H]1[C@H](NS(=O)(=O)c2ccc(F)cc2)CN1C(c1ccc(Cl)cc1)c1ccc(Cl)cc1 [Example 5, (2S, 3R)-N-{1-[Bis-(4-chlorophenyl)methyl]-2-methylazetidin-3-yl}-4-fluoro-benzene sulfonamide] | 264 | 59 | 77 | 100 | 71 | 57 | 2 | 0 | 0 | 0 | 4.6 | 154 to 157
2 | C[C@H]1[C@H](NS(=O)(=O)c2cccs2)CN1C(c1ccc(Cl)cc1)c1ccc(Cl)cc1 [Example 6, Thiophene-2-sulfonic acid {(2S,3R)-1-[bis-(4-chloro-phenyl)-methyl]-2-methyl-azetidin-3-yl}-amide] | – | 66 | 32 | 32 | 51 | 46 | 0 | 0 | 0 | 0 | 13.5 | 72 to 76
